Here are results for 3 compounds from ChEMBL document CHEMBL2417410, “Selectivity data: assessment, predictions, concordance, and implications” (J Med Chem, 2013).

Experiment [1] deals with Cyclin-dependent kinase 9 (Homo sapiens, UniProt P50750).
Experiment [2] addresses Serine/threonine-protein kinase pim-1 (Homo sapiens, UniProt P11309). In words: Inhibition of PIM1 (unknown origin).

Cyclin-dependent kinase 9, sequence (P50750 whole entry): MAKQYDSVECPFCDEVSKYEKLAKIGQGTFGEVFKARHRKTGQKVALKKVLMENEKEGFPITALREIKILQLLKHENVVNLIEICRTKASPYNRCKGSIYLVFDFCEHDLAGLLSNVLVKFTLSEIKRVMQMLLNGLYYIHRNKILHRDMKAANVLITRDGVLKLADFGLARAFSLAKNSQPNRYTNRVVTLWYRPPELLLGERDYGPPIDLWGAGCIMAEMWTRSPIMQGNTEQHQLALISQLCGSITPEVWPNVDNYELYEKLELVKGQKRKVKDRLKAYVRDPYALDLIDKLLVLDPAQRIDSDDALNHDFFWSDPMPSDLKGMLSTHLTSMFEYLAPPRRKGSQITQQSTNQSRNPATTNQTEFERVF
Serine/threonine-protein kinase pim-1, sequence (P11309 whole entry): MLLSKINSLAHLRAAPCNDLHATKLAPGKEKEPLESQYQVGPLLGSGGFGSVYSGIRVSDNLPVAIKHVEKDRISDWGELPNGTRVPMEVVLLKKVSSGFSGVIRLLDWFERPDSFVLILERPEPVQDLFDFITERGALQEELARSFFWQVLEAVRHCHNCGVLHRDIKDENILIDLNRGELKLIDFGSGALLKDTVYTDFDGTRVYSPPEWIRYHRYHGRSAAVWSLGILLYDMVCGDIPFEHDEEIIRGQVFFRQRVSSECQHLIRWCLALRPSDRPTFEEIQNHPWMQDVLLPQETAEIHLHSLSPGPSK

As for `NC(=O)c1cc(-c2ccnc(N)n2)[nH]c1-c1ccc(Cl)cc1Cl`, half-maximal inhibition in experiment [1] (IC50) required 10 nM.
For `CN1CCN(c2nc(C3=C(c4c[nH]c5ccccc45)C(=O)NC3=O)c3ccccc3n2)CC1` [SOTRASTAURIN], in experiment [2], inhibition was half-maximal at 50.1 nM (IC50).
On to `Cc1n[nH]c2ccc(-c3cccnc3)cc12`, for which, in experiment [1], the IC50 (commonly the point on the concentration scale where inhibition reaches its midpoint) was 631 nM.
